From patent publication US20220220373A1, “FLUORESCENT PROBES FOR MONOACYLGLYCEROL LIPASE (MAGL)” (Hoffmann-La Roche Inc., priority 2019, published 2022)

biological target: T1, MAGL (Homo sapiens, UniProt Q99685); assay: 2-AG assay (MAGL inhibitory activity, hydrolysis of 2-arachidonoylglycerol followed by mass spectrometry); assay type: biochemical; details: 50 pM MAGL, 8 μM 2-arachidonoylglycerol, 15 min pre-incubation, 30 min incubation at RT
T1 sequence (Q99685 1-303): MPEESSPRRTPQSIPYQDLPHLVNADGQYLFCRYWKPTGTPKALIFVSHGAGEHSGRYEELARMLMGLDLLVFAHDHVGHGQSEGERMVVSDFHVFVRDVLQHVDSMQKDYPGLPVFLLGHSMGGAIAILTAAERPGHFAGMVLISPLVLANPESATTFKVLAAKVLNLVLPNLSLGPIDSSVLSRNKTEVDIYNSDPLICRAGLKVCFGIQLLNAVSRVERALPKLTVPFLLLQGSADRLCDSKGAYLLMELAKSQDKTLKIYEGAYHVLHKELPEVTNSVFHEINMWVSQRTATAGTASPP
Method: Compounds were profiled for MAGL inhibitory activity by determining the enzymatic activity by following the hydrolysis of the natural substrate 2-arachidonoylglycerol (2-AG) resulting in arachidonic acid, which can be followed by mass spectrometry. This assay is hereinafter abbreviated “2-AG assay”.
The 2-AG assay was carried out in 384 well assay plates (PP, Greiner Cat#784201) in a total volume of 20 μL. Compound dilutions were made in 100% DMSO (VWR Chemicals 23500.297) in a polypropylene plate in 3-fold dilution steps to give a final concentration range in the assay from 12.5 μM to 0.8 pM. […] compound dilutions (100% DMSO) were added to 9 μL MAGL in assay buffer (50 mM TRIS (GIBCO, 15567-027), 1 mM EDTA (Fluka, 03690-100 mL), 0.01% (v/v) Tween. After shaking, the plate was incubated for 15 min at RT. To start the reaction, 10 μL 2-arachidonoylglycerol in assay buffer was added. The final concentrations in the assay was 50 pM MAGL and 8 μM 2-arachidonoylglyerol. After shaking and 30 min incubation at RT, the reaction was quenched by the addition of […] of ACN containing 4 μM of d8-arachidonic acid. The amount of arachidonic acid was traced by an online SPE system (Agilent Rapidfire) coupled to a triple quadrupole mass spectrometer (Agilent 6460). A C18 SPE cartridge (G9205A) was used in an ACN/water liquid setup. The mass spectrometer was operated in negative electrospray mode following the mass transitions 303.1→259.1 for arachidonic acid and 311.1→267.0 for d8-arachidonic acid. The activity of the compounds was calculated based on the ratio of intensities [arachidonic acid/d8-arachidonic acid].

IC50	Compound
5.8 nM	CC(C)(C)OC(=O)NCCOc1cccc(C(=C2CCN(C(=O)N3CC[C@@H]4OCC(=O)N[C@@H]4C3)CC2)c2ccccc2)c1 [Example 23, tert-Butyl (2-(3-((1-((4aR,8aS)-3-oxooctahydro-2H-pyrido[4,3-b][1,4]oxazine-6-carbonyl)piperidin-4-ylidene)(phenyl)methyl)phenoxy)ethyl)carbamate]
0.7 nM	O=C(CCOCCNc1ccc([N+](=O)[O-])c2nonc12)NCCOc1cccc(C(c2ccccc2)C2CCN(C(=O)N3CCC4OCC(=O)NC4C3)CC2)c1 (single isomer, unassigned) [Example 17, N-[2-[3-[(S or R)-11-1(4aR,8aS)-3-Oxo-4,4a,5,7,8,8a-hexahydropyrido[4,3-b][1,4]oxazine-6-carbonyl]-4-piperidyl]-phenyl-methyl]phenoxy]ethyl]-3-[2-[(4-nitro-2,1,3-benzoxadiazol-7-yl)amino]ethoxy]propanamide]
2.1 nM	O=C(CCOCCOCCNc1ccc([N+](=O)[O-])c2nonc12)NCCOc1cccc(C(c2ccccc2)C2CCN(C(=O)N3CC[C@@H]4OCC(=O)N[C@@H]4C3)CC2)c1 (stereo partly drawn) [Example 3, 3-(2-(2-((7-Nitrobenzo[c][1,2,5]oxadiazol-4-yl)amino)ethoxy)ethoxy)-N-(2-(3-((1-((4aR,8aS)-3-oxooctahydro-2H-pyrido[4,3-b][1,4]oxazine-6-carbonyl)piperidin-4-yl)(phenyl)methyl)phenoxy)ethyl)propanamide]
5.3 nM	NCCOc1cccc(C(c2ccccc2)C2CCN(C(=O)N3CC[C@@H]4OCC(=O)N[C@@H]4C3)CC2)c1 (single isomer, unassigned) [Example 6, (4aR,8aS)-6-[4-[(S or R)-[3-(2-Aminoethoxy)phenyl]-phenyl-methyl]piperidine-1-carbonyl]-4,4a,5,7,8,8a-hexahydropyrido[4,3-b][1,4]oxazin-3-one]
1.6 nM	O=C(CCOCCOCCNc1ccc([N+](=O)[O-])c2nonc12)NCCOc1cccc(C(c2ccccc2)C2CCN(C(=O)N3CC[C@@H]4OCC(=O)N[C@@H]4C3)CC2)c1 (single isomer, unassigned) [Example 13, N-[2-[3-[(R or S)-[1-[(4aR,8aS)-3-Oxo-4,4a,5,7,8,8a-hexahydropyrido[4,3-b][1,4]oxazine-6-carbonyl]-4-piperidyl]phenyl-methyl]phenoxy]ethyl]-3-[2-[2-[(4-nitro-2,1,3-benzoxadiazol-7-yl)amino]ethoxy]ethoxy]propanamide]
1.5 nM	CC(C)(C)OC(=O)NCCOCCOCCC(=O)NCCOc1cccc([C@H](c2ccccc2)C2CCN(C(=O)N3CC[C@@H]4OCC(=O)N[C@@H]4C3)CC2)c1 (single isomer, unassigned) [Example 8, tert-Butyl N-[2-[2-[3-[2-[3-[(S or R)-11-1(4aR,8aS)-3-oxo-4,4a,5,7,8,8a-hexahydropyrido[4,3-b][1,4]oxazine-6-carbonyl]-4-piperidyl]-phenyl-methyl]phenoxy]ethylamino]-3-oxo-propoxy]ethoxy]ethyl]carbamate]
2 nM	CC(C)(C)OC(=O)NCCOCCOCCOCCC(=O)NCCOc1cccc(C(c2ccccc2)C2CCN(C(=O)N3CC[C@@H]4OCC(=O)N[C@@H]4C3)CC2)c1 (single isomer, unassigned) [Example 19, tert-Butyl N-[2-[2-[2-[3-[2-[3-[(S or R)-[1-[(4aR,8aS)-3-oxo-4,4a,5,7,8,8a-hexahydropyrido[4,3-b][1,4]oxazine-6-carbonyl]-4-piperidyl]-phenyl-methyl]phenoxy]ethylamino]-3-oxo-propoxy]ethoxy]ethoxy]ethyl]carbamate]
7.8 nM	NCCOCCOCCC(=O)NCCOc1cccc(C(c2ccccc2)C2CCN(C(=O)N3CC[C@@H]4OCC(=O)N[C@@H]4C3)CC2)c1 (single isomer, unassigned) [Example 10, N-[2-[3-[(R or S)-[1-[(4aR,8aS)-3-Oxo-4,4a,5,7,8,8a-hexahydropyrido[4,3-b][1,4]oxazine-6-carbonyl]-4-piperidyl]-phenyl-methyl]phenoxy]ethyl]-3-[2-(2-aminoethoxy)ethoxy]propanamide]
1 nM	O=C(CCOCCOCCOCCNc1ccc([N+](=O)[O-])c2nonc12)NCCOc1cccc(C(c2ccccc2)C2CCN(C(=O)N3CC[C@@H]4OCC(=O)N[C@@H]4C3)CC2)c1 (stereo partly drawn) [Example 1, 3-(2-(2-(2-((7-Nitrobenzo[c][1,2,5]oxadiazol-4-yl)amino)ethoxy)ethoxy)ethoxy)-N-(2-(3-((1-((4aR,8aS)-3-oxooctahydro-2H-pyrido[4,3-b][1,4]oxazine-6-carbonyl)piperidin-4-yl)(phenyl)methyl)phenoxy)ethyl)propanamide]
2930 nM	NCCOCCOCCC(=O)NCCOc1cccc(C(c2ccccc2)C2CCN(C(=O)N3CC[C@@H]4OCC(=O)N[C@@H]4C3)CC2)c1 (single isomer, unassigned) [Example 11, N-[2-[3-[(S or R)-[1-[(4aR,8aS)-3-Oxo-4,4a,5,7,8,8a-hexahydropyrido[4,3-b][1,4]oxazine-6-carbonyl]-4-piperidyl]-phenyl-methyl]phenoxy]ethyl]-3-[2-(2-aminoethoxy)ethoxy]propanamide]
0.5 nM	O=C(CCOCCOCCNc1ccc([N+](=O)[O-])c2nonc12)NCCOc1cccc(C(c2ccccc2)C2CCN(C(=O)N3CC[C@@H]4OCC(=O)N[C@@H]4C3)CC2)c1 (single isomer, unassigned) [Example 12, N-[2-[3-[(S or R)-[1-[(4aR,8aS)-3-Oxo-4,4a,5,7,8,8a-hexahydropyrido[4,3-b][1,4]oxazine-6-carbonyl]-4-piperidyl]-phenyl-methyl]phenoxy]ethyl]-3-[2-[2-[(4-nitro-2,1,3-benzoxadiazol-7-yl)amino]ethoxy]ethoxy]propanamide]
1.3 nM	CC(C)(C)OC(=O)NCCOCCC(=O)NCCOc1cccc(C(c2ccccc2)C2CCN(C(=O)N3CC[C@@H]4OCC(=O)N[C@@H]4C3)CC2)c1 (single isomer, unassigned) [Example 14, tert-Butyl N-[2-[3-[2-[3-[(S or R)-[1-[(4aR,8aS)-3-oxo-4,4a,5,7,8,8a-hexahydropyrido[4,3-b][1,4]oxazine-6-carbonyl]-4-piperidyl]-phenyl-methyl]phenoxy]ethylamino]-3-oxo-propoxy]ethyl]carbamate]
0.4 nM	O=C(CCOCCOCCOCCNc1ccc([N+](=O)[O-])c2nonc12)NCCOc1cccc([C@H](c2ccccc2)C2CCN(C(=O)N3CC[C@@H]4OCC(=O)N[C@@H]4C3)CC2)c1 (single isomer, unassigned) [Example 22, N-[2-[3-[(S or R)-11-1(4aR,8aS)-3-oxo-4,4a,5,7,8,8a-hexahydropyrido[4,3-b][1,4]oxazine-6-carbonyl]-4-piperidyl]-phenyl-methyl]phenoxy]ethyl]-3-[2-[2-[2-[(4-nitro-2,1,3-benzoxadiazol-7-yl)amino]ethoxy]ethoxy]ethoxy]propanamide]
11.4 nM	NCCOCCOCCOCCC(=O)NCCOc1cccc([C@H](c2ccccc2)C2CCN(C(=O)N3CC[C@@H]4OCC(=O)N[C@@H]4C3)CC2)c1 (single isomer, unassigned) [Example 20, N-[2-[3-[(S or R)-[1-1(4aR,8aS)-3-Oxo-4,4a,5,7,8,8a-hexahydropyrido[4,3-b]11,4]oxazine-6-carbonyl]-4-piperidyfl-phenyl-methyl]phenoxy]ethyl]-3-[2-[2-(2-aminoethoxy)ethoxy]ethoxy]propanamide]
13 nM	CC(C)(C)OC(=O)NCCOc1ccc(C(=C2CCN(C(=O)N3CC[C@@H]4OCC(=O)N[C@@H]4C3)CC2)c2ccccc2)cc1 [Example 25, tert-Butyl (2-(4-((1-((4aR,8aS)-3-oxooctahydro-2H-pyrido[4,3-b][1,4]oxazine-6-carbonyl)piperidin-4-ylidene)(phenyl)methyl)phenoxy)ethyl)carbamate]
5.5 nM	O=C1CO[C@H]2CCN(C(=O)N3CCC(=C(c4ccccc4)c4cccc(OCCNc5ccc([N+](=O)[O-])c6nonc56)c4)CC3)C[C@H]2N1 [Example 24]
3.2 nM	CC(C)(C)OC(=O)NCCOCCC(=O)NCCOc1cccc([C@@H](c2ccccc2)C2CCN(C(=O)N3CC[C@@H]4OCC(=O)N[C@@H]4C3)CC2)c1 (single isomer, unassigned) [Example 15, tert-Butyl N-[2-[3-[2-[3-[(R or S)-[1-1(4aR,8aS)-3-oxo-4,4a,5,7,8,8a-hexahydropyrido[4,3-b][1,4]oxazine-6-carbonyl]-4-piperidyl]-phenyl-methyl]phenoxy]ethylamino]-3-oxo-propoxy]ethyl]carbamate]

Compound	IC50
O=C(CCOCCNc1ccc([N+](=O)[O-])c2nonc12)NCCOc1cccc(C(c2ccccc2)C2CCN(C(=O)N3CC[C@@H]4OCC(=O)N[C@@H]4C3)CC2)c1 (stereo partly drawn) [Example 2]	1.2 nM
